In PubChem BioAssay AID2060891 (Molecular Pharmacology Branch, DTP, NCI, 2025):

Test system: K98450-129-R-PDC complex spheroid growth, percent test/control
Assay: Anticancer human tumor K98450-129-R-PDC patient-derived colon adenocarcinoma cell line growth inhibition [RAS]
Conditions: for viability, T/C: stronger effect = lower value
Method in brief: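 Agents were tested in combination matrices in half-log decrements from a top concentration at or near clinical Cmax (10 microM if undetermined). Targets were multi-cell spheroids of tumour lines plus HUVEC and MSC stromal cells.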
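Also: spheroids exposed to agents for seven days before the viability readout.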
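For viability, T/C in this document: luminescence used as a proxy for viable cell amount.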

Question: For `O=C(c1ccc(F)c(F)c1Nc1ccc(I)cc1F)N1CC(O)([C@@H]2CCCCN2)C1` + C=CC(=O)N1CCN(c2nc(OCC3CCCN3C)nc3c(F)c(-c4nc(N)cc(C)c4C(F)(F)F)c(Cl)cc23)C(C)C1, which IC50 (curve of first compound, second compound 0.00316 µM) is on record?
Answer: The IC50 was 0.165 µM.

Question: What about the IC50 (curve of first compound, second compound 0.01 µM) of the same compound?
Answer: Its IC50 is 0.132 µM.

Question: What about the IC50 (curve of first compound, second compound 0.0316 µM) of the same compound?
Answer: The IC50 was 0.106 µM.

Question: And the IC50 (curve of first compound, second compound 0.1 µM)?
Answer: The IC50 was 0.0089 µM.

Question: And the IC50 (curve of first compound, second compound 0.316 µM)?
Answer: Its IC50 is < 0.00316 µM.

Question: What about the IC50 (curve of first compound, second compound 1 µM) of the same compound?
Answer: Its IC50 is < 0.00316 µM.

Question: And the viability, T/C (second compound 0.00316 µM, first compound 0.00316 µM)?
Answer: The viability, T/C was 91.1%.

Question: And the viability, T/C (second compound 0.00316 µM, first compound 0.01 µM)?
Answer: Its viability, T/C is 96.7%.

Question: What about the viability, T/C (second compound 0.00316 µM, first compound 0.0316 µM) of the same compound?
Answer: The viability, T/C was 87.9%.

Question: And the viability, T/C (second compound 0.00316 µM, first compound 0.1 µM)?
Answer: The viability, T/C was 78.3%.

Question: And the viability, T/C (second compound 0.00316 µM, first compound 0.316 µM)?
Answer: The viability, T/C was 13.7%.

Question: And the viability, T/C (second compound 0.00316 µM, first compound 1 µM)?
Answer: Its viability, T/C is 2.87%.

Question: And the viability, T/C (second compound 0.01 µM, first compound 0.00316 µM)?
Answer: Its viability, T/C is 86.3%.

Question: What about the viability, T/C (second compound 0.01 µM, first compound 0.01 µM) of the same compound?
Answer: The viability, T/C was 77.6%.

Question: What about the viability, T/C (second compound 0.01 µM, first compound 0.0316 µM) of the same compound?
Answer: Its viability, T/C is 81.8%.

Question: What about the viability, T/C (second compound 0.01 µM, first compound 0.1 µM) of the same compound?
Answer: Its viability, T/C is 63.1%.

Question: And the viability, T/C (second compound 0.01 µM, first compound 0.316 µM)?
Answer: Its viability, T/C is 9.42%.

Question: And the viability, T/C (second compound 0.01 µM, first compound 1 µM)?
Answer: The viability, T/C was 3.09%.

Question: And the viability, T/C (second compound 0.0316 µM, first compound 0.00316 µM)?
Answer: The viability, T/C was 72.8%.

Question: What about the viability, T/C (second compound 0.0316 µM, first compound 0.01 µM) of the same compound?
Answer: The viability, T/C was 64.5%.

Question: What about the viability, T/C (second compound 0.0316 µM, first compound 0.0316 µM) of the same compound?
Answer: The viability, T/C was 63.2%.

Question: And the viability, T/C (second compound 0.0316 µM, first compound 0.1 µM)?
Answer: Its viability, T/C is 52.5%.

Question: And the viability, T/C (second compound 0.0316 µM, first compound 0.316 µM)?
Answer: The viability, T/C was 7.27%.

Question: What about the viability, T/C (second compound 0.0316 µM, first compound 1 µM) of the same compound?
Answer: Its viability, T/C is 2.63%.

Question: What about the viability, T/C (second compound 0.1 µM, first compound 0.00316 µM) of the same compound?
Answer: The viability, T/C was 55.2%.

Question: What about the viability, T/C (second compound 0.1 µM, first compound 0.01 µM) of the same compound?
Answer: The viability, T/C was 47.6%.

Question: And the viability, T/C (second compound 0.1 µM, first compound 0.0316 µM)?
Answer: Its viability, T/C is 39%.

Question: And the viability, T/C (second compound 0.1 µM, first compound 0.1 µM)?
Answer: Its viability, T/C is 22.6%.

Question: What about the viability, T/C (second compound 0.1 µM, first compound 0.316 µM) of the same compound?
Answer: The viability, T/C was 5.51%.

Question: And the viability, T/C (second compound 0.1 µM, first compound 1 µM)?
Answer: Its viability, T/C is 2.39%.

Question: What about the viability, T/C (second compound 0.316 µM, first compound 0.00316 µM) of the same compound?
Answer: The viability, T/C was 34.2%.

Question: What about the viability, T/C (second compound 0.316 µM, first compound 0.01 µM) of the same compound?
Answer: Its viability, T/C is 34.2%.

Question: What about the viability, T/C (second compound 0.316 µM, first compound 0.0316 µM) of the same compound?
Answer: Its viability, T/C is 21.5%.

Question: And the viability, T/C (second compound 0.316 µM, first compound 0.1 µM)?
Answer: The viability, T/C was 10.9%.

Question: And the viability, T/C (second compound 0.316 µM, first compound 0.316 µM)?
Answer: Its viability, T/C is 4.66%.

Question: What about the viability, T/C (second compound 0.316 µM, first compound 1 µM) of the same compound?
Answer: Its viability, T/C is 2.41%.

Question: And the viability, T/C (second compound 1 µM, first compound 0.00316 µM)?
Answer: Its viability, T/C is 27.9%.

Question: What about the viability, T/C (second compound 1 µM, first compound 0.01 µM) of the same compound?
Answer: Its viability, T/C is 24.1%.

Question: What about the viability, T/C (second compound 1 µM, first compound 0.0316 µM) of the same compound?
Answer: Its viability, T/C is 16.3%.

Question: What about the viability, T/C (second compound 1 µM, first compound 0.1 µM) of the same compound?
Answer: The viability, T/C was 9.12%.

Question: And the viability, T/C (second compound 1 µM, first compound 0.316 µM)?
Answer: The viability, T/C was 5%.

Question: And the viability, T/C (second compound 1 µM, first compound 1 µM)?
Answer: The viability, T/C was 2.46%.

Question: With `CCC(CC)c1cc(NC2CCC(N)C2)n2nccc2n1` (stereo not given) + CCn1c(-c2cccnc2C(C)OC)c2c3cc(ccc31)N1CCOC(CC(NC(=O)C(C(C)C)N(C)C(=O)C3(F)CCN(C(=O)C#CC(C)(C)N(C)C)CC3)C(=O)N3CCCC(N3)C(=O)OCC(C)(C)C2)C1 as the compound, how does the IC50 (curve of first compound, second compound 0.000949 µM) read?
Answer: Its IC50 is 2.93 µM.

Question: What about the IC50 (curve of first compound, second compound 0.003 µM) of the same compound?
Answer: The IC50 was 0.545 µM.

Question: And the IC50 (curve of first compound, second compound 0.00949 µM)?
Answer: Its IC50 is < 0.0316 µM.

Question: And the IC50 (curve of first compound, second compound 0.03 µM)?
Answer: The IC50 was < 0.0316 µM.

Question: What about the IC50 (curve of first compound, second compound 0.0949 µM) of the same compound?
Answer: The IC50 was < 0.0316 µM.

Question: And the IC50 (curve of first compound, second compound 0.3 µM)?
Answer: The IC50 was < 0.0316 µM.

Question: And the viability, T/C (second compound 0.000949 µM, first compound 0.0316 µM)?
Answer: The viability, T/C was 77.1%.

Question: And the viability, T/C (second compound 0.000949 µM, first compound 0.1 µM)?
Answer: Its viability, T/C is 72.7%.

Question: And the viability, T/C (second compound 0.000949 µM, first compound 0.316 µM)?
Answer: The viability, T/C was 73%.

Question: And the viability, T/C (second compound 0.000949 µM, first compound 1 µM)?
Answer: The viability, T/C was 59.7%.

Question: What about the viability, T/C (second compound 0.000949 µM, first compound 3.16 µM) of the same compound?
Answer: Its viability, T/C is 52.3%.

Question: What about the viability, T/C (second compound 0.000949 µM, first compound 10 µM) of the same compound?
Answer: Its viability, T/C is 11.8%.

Question: And the viability, T/C (second compound 0.003 µM, first compound 0.0316 µM)?
Answer: The viability, T/C was 65.2%.

Question: What about the viability, T/C (second compound 0.003 µM, first compound 0.1 µM) of the same compound?
Answer: Its viability, T/C is 59%.

Question: And the viability, T/C (second compound 0.003 µM, first compound 0.316 µM)?
Answer: Its viability, T/C is 56.8%.

Question: What about the viability, T/C (second compound 0.003 µM, first compound 1 µM) of the same compound?
Answer: The viability, T/C was 39.4%.

Question: What about the viability, T/C (second compound 0.003 µM, first compound 3.16 µM) of the same compound?
Answer: The viability, T/C was 36.9%.

Question: And the viability, T/C (second compound 0.003 µM, first compound 10 µM)?
Answer: Its viability, T/C is 10.6%.

Question: What about the viability, T/C (second compound 0.00949 µM, first compound 0.0316 µM) of the same compound?
Answer: The viability, T/C was 44.4%.

Question: And the viability, T/C (second compound 0.00949 µM, first compound 0.1 µM)?
Answer: The viability, T/C was 53.3%.

Question: And the viability, T/C (second compound 0.00949 µM, first compound 0.316 µM)?
Answer: Its viability, T/C is 48.8%.

Question: And the viability, T/C (second compound 0.00949 µM, first compound 1 µM)?
Answer: The viability, T/C was 35.4%.

Question: What about the viability, T/C (second compound 0.00949 µM, first compound 3.16 µM) of the same compound?
Answer: Its viability, T/C is 20.8%.

Question: What about the viability, T/C (second compound 0.00949 µM, first compound 10 µM) of the same compound?
Answer: Its viability, T/C is 11.9%.

Question: What about the viability, T/C (second compound 0.03 µM, first compound 0.0316 µM) of the same compound?
Answer: The viability, T/C was 33.7%.

Question: And the viability, T/C (second compound 0.03 µM, first compound 0.1 µM)?
Answer: Its viability, T/C is 42.4%.

Question: And the viability, T/C (second compound 0.03 µM, first compound 0.316 µM)?
Answer: Its viability, T/C is 40.2%.

Question: And the viability, T/C (second compound 0.03 µM, first compound 1 µM)?
Answer: Its viability, T/C is 23.1%.

Question: And the viability, T/C (second compound 0.03 µM, first compound 3.16 µM)?
Answer: Its viability, T/C is 20.5%.

Question: What about the viability, T/C (second compound 0.03 µM, first compound 10 µM) of the same compound?
Answer: Its viability, T/C is 10.4%.

Question: And the viability, T/C (second compound 0.0949 µM, first compound 0.0316 µM)?
Answer: The viability, T/C was 29.9%.

Question: And the viability, T/C (second compound 0.0949 µM, first compound 0.1 µM)?
Answer: Its viability, T/C is 33.4%.

Question: And the viability, T/C (second compound 0.0949 µM, first compound 0.316 µM)?
Answer: The viability, T/C was 38.3%.

Question: And the viability, T/C (second compound 0.0949 µM, first compound 1 µM)?
Answer: The viability, T/C was 36.3%.

Question: And the viability, T/C (second compound 0.0949 µM, first compound 3.16 µM)?
Answer: The viability, T/C was 11.8%.

Question: What about the viability, T/C (second compound 0.0949 µM, first compound 10 µM) of the same compound?
Answer: Its viability, T/C is 9.38%.

Question: What about the viability, T/C (second compound 0.3 µM, first compound 0.0316 µM) of the same compound?
Answer: The viability, T/C was 34.1%.

Question: What about the viability, T/C (second compound 0.3 µM, first compound 0.1 µM) of the same compound?
Answer: The viability, T/C was 36.5%.

Question: And the viability, T/C (second compound 0.3 µM, first compound 0.316 µM)?
Answer: The viability, T/C was 39.2%.

Question: What about the viability, T/C (second compound 0.3 µM, first compound 1 µM) of the same compound?
Answer: The viability, T/C was 31.3%.

Question: And the viability, T/C (second compound 0.3 µM, first compound 3.16 µM)?
Answer: The viability, T/C was 12.7%.

Question: And the viability, T/C (second compound 0.3 µM, first compound 10 µM)?
Answer: Its viability, T/C is 9.36%.

Question: Which results are given for `CCn1c(-c2cc(N3CCN(C)CC3)cnc2C(C)OC)c2c3cc(ccc31)-c1csc(n1)CC(NC(=O)C1CC1C)C(=O)N1CCCC(N1)C(=O)OCC(C)(C)C2` (stereo not given)?
Answer: viability, T/C (compound 0.000949 µM): 93.1% [middle of 8 runs]; viability, T/C (compound 0.003 µM): 86.4% [middle of 8 runs]; viability, T/C (compound 0.03 µM): 56.8% [middle of 8 runs]; viability, T/C (compound 0.0949 µM): 23.6% [middle of 8 runs]; viability, T/C (compound 0.3 µM): 14.1% [middle of 8 runs]; IC50 (compound alone, run of 05/20/2024): 35 nM [middle of 8 runs]
